# Measurements taken from ChEMBL document CHEMBL1201862, “PubChem BioAssay data set” (2004).
# Activity calls are given as the source filed them.
# Legend:
# [1] = test system: HEK293; experiment: cells; type: functional, cell-based; conditions: Homo sapiens
# [2] = target: Nuclear receptor subfamily 0 group B member 1 (Homo sapiens, UniProt P51843); experiment: Luminescence-based cell-based high throughput dose response assay for inhibitors of the orphan nuclear receptor subfamily 0, group B, member 1 (DAX1; NR0B1). [Related pubchem assays (depositor defined):AID504766, AID504790]; type: functional
# [3] = target: Dual specificity protein kinase CLK1 (Homo sapiens, UniProt P49759); experiment: inhibition of human CLK1 activity – biochemical, cherry-picked samples, selectivity assay for Dyrk1A inhibitor project, dose response (AID 588811)
# [4] = target: DNA topoisomerase (Yersinia pestis, UniProt A0A2S9PM60); experiment: Yersinia topoisomerase I cleavage product accumulation – biochemical, cherry-pick, dose response (AID 588525)
# [5] = target: Hexokinase-1 (Homo sapiens, UniProt P19367); experiment: SAR analysis of small molecule inhibitors of hexokinase domain containing I (HKDC1) in the hexokinase 1 selectivity assay. [Related pubchem assays (depositor defined):AID493160, AID493190]; type: functional
# [6] = target: T1, Hexokinase HKDC1 (Homo sapiens, UniProt Q2TB90); experiment: SAR analysis of small molecule inhibitors of hexokinase domain containing I (HKDC1). [Related pubchem assays (depositor defined):AID493160, AID493190]; type: functional
# T1 sequence (Q2TB90 whole entry): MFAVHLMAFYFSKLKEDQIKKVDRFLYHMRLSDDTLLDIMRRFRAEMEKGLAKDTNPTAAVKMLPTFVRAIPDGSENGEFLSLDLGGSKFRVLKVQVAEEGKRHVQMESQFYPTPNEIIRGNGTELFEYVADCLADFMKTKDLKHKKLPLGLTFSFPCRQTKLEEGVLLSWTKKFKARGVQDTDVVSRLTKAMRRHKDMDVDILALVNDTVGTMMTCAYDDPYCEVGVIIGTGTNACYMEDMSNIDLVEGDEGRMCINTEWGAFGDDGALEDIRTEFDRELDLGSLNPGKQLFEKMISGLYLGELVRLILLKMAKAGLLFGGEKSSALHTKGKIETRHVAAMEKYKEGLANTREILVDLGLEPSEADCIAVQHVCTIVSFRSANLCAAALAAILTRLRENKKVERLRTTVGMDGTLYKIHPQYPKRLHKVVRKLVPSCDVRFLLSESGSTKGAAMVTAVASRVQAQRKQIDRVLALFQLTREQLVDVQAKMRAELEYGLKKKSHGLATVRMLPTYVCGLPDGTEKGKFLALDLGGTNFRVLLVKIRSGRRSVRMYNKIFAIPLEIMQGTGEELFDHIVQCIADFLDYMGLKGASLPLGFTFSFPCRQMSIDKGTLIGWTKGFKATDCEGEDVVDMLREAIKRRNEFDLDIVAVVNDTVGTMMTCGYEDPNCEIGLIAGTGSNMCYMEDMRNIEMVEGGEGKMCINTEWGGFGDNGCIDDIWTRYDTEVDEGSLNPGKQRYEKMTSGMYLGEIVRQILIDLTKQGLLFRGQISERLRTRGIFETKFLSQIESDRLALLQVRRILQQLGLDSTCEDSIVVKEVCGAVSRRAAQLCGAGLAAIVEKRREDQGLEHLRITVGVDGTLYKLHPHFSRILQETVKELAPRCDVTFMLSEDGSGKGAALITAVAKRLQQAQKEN
# [7] = target: Phospholipase D1 (Homo sapiens, UniProt Q13393); experiment: cellular phospholipase D1 inhibition IC50 – cell-based, dose response (AID 602151); type: functional;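 note: cellular PLD1 assay in Calu-1 cells stimulated with PMA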
# [8] = target: Phospholipase D2 (Homo sapiens, UniProt O14939); experiment: cellular phospholipase D2 inhibition IC50 – cell-based, dose response (AID 602147); type: functional;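 note: cellular assay in HEK293 cells overexpressing GFP-tagged PLD2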
# [9] = target: T2, Sentrin-specific protease 7 (Homo sapiens, UniProt Q9BQF6); experiment: inhibition of human SENP7 cleavage activity – biochemical, luminescence, SAR follow-up (AID 504497); type: functional
# T2 sequence (Q9BQF6 whole entry): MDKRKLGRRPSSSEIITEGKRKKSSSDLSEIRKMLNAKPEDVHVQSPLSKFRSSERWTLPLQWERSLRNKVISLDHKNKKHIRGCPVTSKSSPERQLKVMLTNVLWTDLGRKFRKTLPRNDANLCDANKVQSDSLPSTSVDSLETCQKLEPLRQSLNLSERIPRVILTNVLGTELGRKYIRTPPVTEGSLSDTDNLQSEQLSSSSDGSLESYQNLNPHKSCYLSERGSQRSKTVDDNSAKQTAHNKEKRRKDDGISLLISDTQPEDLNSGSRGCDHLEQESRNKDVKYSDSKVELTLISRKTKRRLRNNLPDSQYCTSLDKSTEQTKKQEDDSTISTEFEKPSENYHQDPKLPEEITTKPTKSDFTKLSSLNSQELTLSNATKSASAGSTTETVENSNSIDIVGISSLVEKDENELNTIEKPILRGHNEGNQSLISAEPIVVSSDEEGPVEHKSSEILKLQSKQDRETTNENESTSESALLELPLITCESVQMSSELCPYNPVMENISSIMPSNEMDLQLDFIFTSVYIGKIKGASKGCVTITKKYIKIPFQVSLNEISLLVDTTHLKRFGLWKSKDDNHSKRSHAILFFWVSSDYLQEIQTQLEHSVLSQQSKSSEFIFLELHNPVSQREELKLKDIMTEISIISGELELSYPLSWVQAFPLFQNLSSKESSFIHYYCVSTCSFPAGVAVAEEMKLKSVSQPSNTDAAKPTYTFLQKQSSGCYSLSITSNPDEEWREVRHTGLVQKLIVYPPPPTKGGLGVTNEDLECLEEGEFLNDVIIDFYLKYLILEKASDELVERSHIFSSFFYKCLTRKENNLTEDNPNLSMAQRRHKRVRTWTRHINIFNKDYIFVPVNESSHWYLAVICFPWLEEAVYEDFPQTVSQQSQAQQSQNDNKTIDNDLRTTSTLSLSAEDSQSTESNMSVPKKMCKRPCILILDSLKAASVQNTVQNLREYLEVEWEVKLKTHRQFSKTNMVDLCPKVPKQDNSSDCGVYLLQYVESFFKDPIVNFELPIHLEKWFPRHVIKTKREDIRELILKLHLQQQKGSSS
# [10] = target: T3, Sentrin-specific protease 8 (Homo sapiens, UniProt Q96LD8); experiment: inhibition of human SENP8 cleavage activity – biochemical, luminescence, SAR follow-up (AID 504501); type: functional
# T3 sequence (Q96LD8 whole entry): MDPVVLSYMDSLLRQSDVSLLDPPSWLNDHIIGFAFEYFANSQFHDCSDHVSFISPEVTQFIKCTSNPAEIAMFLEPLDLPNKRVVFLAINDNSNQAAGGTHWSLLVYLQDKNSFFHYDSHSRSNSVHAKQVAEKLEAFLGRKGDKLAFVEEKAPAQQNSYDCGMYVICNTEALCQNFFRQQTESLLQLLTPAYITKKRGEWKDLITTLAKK
# [11] = target: T4, Sentrin-specific protease 6 (Homo sapiens, UniProt Q9GZR1); experiment: SAR Analysis of small molecule inhibitors of Sentrin-specific protease 6 (SENP6) using a Luminescent assay. [Related pubchem assays (depositor defined):AID2582, AID2599]; type: functional
# T4 sequence (Q9GZR1 whole entry): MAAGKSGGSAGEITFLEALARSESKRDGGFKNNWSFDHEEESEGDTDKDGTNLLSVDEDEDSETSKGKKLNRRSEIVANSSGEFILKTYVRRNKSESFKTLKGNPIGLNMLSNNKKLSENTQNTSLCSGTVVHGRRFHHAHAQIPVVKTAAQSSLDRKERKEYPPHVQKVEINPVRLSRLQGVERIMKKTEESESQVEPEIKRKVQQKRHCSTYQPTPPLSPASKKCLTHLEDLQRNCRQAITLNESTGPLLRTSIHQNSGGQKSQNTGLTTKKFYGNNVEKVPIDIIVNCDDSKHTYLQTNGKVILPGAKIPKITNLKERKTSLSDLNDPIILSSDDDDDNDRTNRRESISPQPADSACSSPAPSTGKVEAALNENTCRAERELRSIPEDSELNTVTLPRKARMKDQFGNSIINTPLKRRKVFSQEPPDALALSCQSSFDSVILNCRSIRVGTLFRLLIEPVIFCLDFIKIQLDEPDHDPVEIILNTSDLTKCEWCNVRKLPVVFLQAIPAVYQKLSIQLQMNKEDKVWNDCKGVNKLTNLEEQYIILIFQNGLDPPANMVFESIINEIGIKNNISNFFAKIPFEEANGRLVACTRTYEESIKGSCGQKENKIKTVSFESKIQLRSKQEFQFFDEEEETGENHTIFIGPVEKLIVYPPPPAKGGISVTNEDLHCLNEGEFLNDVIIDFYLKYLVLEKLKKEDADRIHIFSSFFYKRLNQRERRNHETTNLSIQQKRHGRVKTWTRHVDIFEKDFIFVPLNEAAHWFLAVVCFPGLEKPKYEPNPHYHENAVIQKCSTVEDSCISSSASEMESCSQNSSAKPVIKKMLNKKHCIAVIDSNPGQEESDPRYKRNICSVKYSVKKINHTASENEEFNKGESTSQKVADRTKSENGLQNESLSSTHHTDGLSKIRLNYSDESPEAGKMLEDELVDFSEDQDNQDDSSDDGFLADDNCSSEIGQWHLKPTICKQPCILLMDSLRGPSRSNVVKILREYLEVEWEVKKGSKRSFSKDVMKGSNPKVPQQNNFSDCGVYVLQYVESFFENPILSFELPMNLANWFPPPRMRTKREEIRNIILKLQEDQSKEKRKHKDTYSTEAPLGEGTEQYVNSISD
# [12] = target: T5, Caspase-3 (Homo sapiens, UniProt P42574); experiment: SAR Analysis of small molecule inhibitors of Sentrin-specific proteases (SENPs) using a Caspase-3 Selectivity assay. [Related pubchem assays (depositor defined):AID2540, AID2599, AID434973, AID489001]; type: functional
# T5 sequence (P42574 whole entry): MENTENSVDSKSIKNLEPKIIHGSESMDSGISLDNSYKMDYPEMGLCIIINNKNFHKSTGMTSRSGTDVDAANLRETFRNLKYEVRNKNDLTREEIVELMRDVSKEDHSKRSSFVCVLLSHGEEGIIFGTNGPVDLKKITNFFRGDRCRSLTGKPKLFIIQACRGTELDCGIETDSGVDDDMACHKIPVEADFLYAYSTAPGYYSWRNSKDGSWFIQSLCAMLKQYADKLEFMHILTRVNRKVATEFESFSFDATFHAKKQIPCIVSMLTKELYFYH
# [13] = target: DNA dC->dU-editing enzyme APOBEC-3A (Homo sapiens, UniProt P31941); experiment: SAR analysis of small molecule inhibitors of APOBEC3A DNA Deaminase via a fluorescence-based single-stranded DNA deaminase assay.; type: functional; conditions: read-out: IC50_Mean
# [14] = target: DNA dC->dU-editing enzyme APOBEC-3G (Homo sapiens, UniProt Q9HC16); experiment: inhibition of APOBEC3G ssDNA deamination – biochemical, fluorescence, single-stranded DNA substrate, SAR follow-up (AID 602136); type: functional; conditions: read-out: IC50_Mean
# [15] = target: Sphingosine 1-phosphate receptor 4 (Homo sapiens, UniProt O95977); experiment: Late-stage fluorescence-based dose-response cell-based counterscreen assay to identify agonists of the Sphingosine 1-Phosphate Receptor 3 (S1P3): Sphingosine 1-Phosphate Receptor 4 (S1P4) agonist assay.; type: functional
# [16] = target: Sphingosine 1-phosphate receptor 2 (Homo sapiens, UniProt O95136); experiment: Late-stage fluorescence-based dose-response cell-based counterscreen assay to identify agonists of the Sphingosine 1-Phosphate Receptor 3 (S1P3): Sphingosine 1-Phosphate Receptor 2 (S1P2) agonist assay.; type: functional
# [17] = test system: HEK293; experiment: SAR Analysis of small molecule inhibitors of both B-cell and T-cell specific antigen receptor-induced NF-kB activation in a HEK-293T cell line using a luminescence assay. [Related pubchem assays (depositor defined):AID435003, AID435022, AID465, AID489019, AID489029]; type: functional, cell-based; conditions: Homo sapiens
# [18] = test system: Jurkat; experiment: SAR Analysis of small molecule inhibitors of both B-cell and T-cell specific antigen receptor-induced NF-kB activation in a Jurkat cell line using a luminescence assay. [Related pubchem assays (depositor defined):AID435003, AID435022, AID465, AID489029]; type: functional, cell-based; conditions: Homo sapiens
# [19] = test system: HEK293; experiment: HEK293T cell viability loss, resazurin readout – resazurin fluorescence, cytotoxicity control for NF-kB activator project, SAR follow-up (AID 493251); type: functional, cell-based; conditions: Homo sapiens
# Chain of DNA dC->dU-editing enzyme APOBEC-3A (P31941 whole entry): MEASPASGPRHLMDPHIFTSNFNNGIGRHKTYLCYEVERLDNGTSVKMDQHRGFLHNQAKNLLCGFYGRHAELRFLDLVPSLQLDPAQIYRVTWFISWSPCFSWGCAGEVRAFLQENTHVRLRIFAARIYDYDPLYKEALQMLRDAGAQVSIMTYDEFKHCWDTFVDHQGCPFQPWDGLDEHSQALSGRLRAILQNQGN
# Chain of Sphingosine 1-phosphate receptor 2 (O95136 whole entry): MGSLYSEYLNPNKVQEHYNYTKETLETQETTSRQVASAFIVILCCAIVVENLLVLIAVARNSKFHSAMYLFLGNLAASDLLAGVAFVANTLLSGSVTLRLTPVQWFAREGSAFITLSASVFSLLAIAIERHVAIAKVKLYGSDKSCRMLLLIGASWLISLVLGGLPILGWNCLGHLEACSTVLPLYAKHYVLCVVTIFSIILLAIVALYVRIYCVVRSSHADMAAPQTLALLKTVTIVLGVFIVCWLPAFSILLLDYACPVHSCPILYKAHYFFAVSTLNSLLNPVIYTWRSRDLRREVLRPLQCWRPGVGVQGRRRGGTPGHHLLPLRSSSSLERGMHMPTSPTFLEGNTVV
# Chain of Sphingosine 1-phosphate receptor 4 (O95977 whole entry): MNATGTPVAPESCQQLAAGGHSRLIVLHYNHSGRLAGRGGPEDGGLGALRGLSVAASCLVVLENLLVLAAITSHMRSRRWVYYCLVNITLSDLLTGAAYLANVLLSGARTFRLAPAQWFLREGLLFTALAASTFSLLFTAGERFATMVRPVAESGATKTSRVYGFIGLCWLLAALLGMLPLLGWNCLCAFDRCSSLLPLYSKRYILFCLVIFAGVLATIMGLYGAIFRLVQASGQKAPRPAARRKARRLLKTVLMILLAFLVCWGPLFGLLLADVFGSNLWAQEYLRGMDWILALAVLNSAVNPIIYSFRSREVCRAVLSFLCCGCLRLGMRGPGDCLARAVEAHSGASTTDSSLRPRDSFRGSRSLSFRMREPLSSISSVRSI
# Chain of Phospholipase D2 (O14939 whole entry): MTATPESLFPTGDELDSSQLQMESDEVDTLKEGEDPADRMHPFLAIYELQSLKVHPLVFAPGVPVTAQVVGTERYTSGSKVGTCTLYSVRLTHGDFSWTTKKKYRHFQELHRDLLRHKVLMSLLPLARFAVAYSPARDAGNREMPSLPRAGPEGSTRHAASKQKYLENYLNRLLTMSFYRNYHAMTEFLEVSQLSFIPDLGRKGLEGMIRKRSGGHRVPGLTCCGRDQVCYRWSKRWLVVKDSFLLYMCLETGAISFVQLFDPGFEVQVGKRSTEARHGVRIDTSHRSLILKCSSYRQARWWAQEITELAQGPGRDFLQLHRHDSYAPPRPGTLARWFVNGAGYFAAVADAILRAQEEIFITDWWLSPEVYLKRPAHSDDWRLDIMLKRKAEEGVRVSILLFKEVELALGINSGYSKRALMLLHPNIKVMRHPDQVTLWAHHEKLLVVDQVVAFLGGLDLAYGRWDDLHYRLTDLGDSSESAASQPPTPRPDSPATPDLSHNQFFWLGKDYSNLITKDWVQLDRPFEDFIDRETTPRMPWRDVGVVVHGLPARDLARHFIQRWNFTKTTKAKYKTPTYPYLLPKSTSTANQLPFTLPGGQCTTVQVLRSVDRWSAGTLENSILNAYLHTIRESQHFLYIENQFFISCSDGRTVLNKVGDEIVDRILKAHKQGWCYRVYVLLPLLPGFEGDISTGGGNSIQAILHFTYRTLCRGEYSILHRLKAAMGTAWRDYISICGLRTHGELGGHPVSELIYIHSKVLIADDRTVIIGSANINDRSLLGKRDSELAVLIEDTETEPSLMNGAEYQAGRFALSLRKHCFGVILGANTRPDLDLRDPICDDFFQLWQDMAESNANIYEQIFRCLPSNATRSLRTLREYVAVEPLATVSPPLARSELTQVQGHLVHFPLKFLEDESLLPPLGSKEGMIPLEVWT
# Chain of Phospholipase D1 (Q13393 whole entry): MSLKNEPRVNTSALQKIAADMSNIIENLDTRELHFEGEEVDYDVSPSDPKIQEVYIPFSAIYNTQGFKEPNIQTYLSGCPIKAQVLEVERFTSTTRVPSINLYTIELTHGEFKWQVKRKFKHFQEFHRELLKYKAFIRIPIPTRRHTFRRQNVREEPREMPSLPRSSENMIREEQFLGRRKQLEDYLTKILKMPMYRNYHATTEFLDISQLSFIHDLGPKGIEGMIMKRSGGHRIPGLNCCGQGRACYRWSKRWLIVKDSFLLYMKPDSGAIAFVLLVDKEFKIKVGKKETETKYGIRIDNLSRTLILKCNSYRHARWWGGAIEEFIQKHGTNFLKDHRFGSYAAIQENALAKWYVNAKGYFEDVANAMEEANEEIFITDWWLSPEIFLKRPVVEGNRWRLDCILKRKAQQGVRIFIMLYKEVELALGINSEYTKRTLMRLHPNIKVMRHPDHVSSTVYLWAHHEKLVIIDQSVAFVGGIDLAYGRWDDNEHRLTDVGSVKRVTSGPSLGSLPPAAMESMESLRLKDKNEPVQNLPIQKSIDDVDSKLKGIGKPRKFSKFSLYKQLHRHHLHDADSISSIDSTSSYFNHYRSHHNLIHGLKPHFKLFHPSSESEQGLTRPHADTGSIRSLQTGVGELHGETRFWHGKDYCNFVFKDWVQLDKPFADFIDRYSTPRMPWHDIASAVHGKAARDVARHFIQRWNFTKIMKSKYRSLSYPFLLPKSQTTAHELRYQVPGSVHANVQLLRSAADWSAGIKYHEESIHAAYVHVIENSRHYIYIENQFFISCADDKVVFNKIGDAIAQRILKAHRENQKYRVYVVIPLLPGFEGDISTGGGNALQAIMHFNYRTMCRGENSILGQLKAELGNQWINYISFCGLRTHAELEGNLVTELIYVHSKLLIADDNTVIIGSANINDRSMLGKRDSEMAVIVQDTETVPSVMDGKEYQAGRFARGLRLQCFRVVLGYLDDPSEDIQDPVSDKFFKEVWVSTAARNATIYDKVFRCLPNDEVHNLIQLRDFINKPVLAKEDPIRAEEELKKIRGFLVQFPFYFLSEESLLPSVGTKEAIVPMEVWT
# Chain of DNA dC->dU-editing enzyme APOBEC-3G (Q9HC16 whole entry): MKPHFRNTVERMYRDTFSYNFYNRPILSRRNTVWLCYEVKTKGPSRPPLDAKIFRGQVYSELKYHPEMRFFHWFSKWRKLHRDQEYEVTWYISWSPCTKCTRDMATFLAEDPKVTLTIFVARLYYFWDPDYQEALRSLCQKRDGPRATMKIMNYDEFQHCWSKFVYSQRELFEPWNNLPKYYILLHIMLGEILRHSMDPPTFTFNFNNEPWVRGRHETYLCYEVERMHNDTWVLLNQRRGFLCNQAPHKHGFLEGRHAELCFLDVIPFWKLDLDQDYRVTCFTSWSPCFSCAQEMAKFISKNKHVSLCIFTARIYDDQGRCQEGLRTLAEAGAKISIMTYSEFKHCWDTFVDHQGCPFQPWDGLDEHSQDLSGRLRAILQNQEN
# Chain of Dual specificity protein kinase CLK1 (P49759 whole entry): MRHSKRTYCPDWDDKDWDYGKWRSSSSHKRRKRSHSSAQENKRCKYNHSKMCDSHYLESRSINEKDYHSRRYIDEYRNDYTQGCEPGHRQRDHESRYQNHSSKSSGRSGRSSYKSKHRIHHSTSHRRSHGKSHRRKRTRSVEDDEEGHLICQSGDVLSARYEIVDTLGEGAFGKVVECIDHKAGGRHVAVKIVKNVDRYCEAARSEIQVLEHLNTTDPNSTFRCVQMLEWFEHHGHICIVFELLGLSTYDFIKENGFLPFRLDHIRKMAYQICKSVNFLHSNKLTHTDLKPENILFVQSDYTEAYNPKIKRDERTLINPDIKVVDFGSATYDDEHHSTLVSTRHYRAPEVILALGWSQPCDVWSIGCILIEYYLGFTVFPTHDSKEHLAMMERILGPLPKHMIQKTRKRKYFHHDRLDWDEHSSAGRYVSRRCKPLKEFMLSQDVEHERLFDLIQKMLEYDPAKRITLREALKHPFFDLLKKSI
# Chain of Hexokinase-1 (P19367 whole entry, the tested form may be a part): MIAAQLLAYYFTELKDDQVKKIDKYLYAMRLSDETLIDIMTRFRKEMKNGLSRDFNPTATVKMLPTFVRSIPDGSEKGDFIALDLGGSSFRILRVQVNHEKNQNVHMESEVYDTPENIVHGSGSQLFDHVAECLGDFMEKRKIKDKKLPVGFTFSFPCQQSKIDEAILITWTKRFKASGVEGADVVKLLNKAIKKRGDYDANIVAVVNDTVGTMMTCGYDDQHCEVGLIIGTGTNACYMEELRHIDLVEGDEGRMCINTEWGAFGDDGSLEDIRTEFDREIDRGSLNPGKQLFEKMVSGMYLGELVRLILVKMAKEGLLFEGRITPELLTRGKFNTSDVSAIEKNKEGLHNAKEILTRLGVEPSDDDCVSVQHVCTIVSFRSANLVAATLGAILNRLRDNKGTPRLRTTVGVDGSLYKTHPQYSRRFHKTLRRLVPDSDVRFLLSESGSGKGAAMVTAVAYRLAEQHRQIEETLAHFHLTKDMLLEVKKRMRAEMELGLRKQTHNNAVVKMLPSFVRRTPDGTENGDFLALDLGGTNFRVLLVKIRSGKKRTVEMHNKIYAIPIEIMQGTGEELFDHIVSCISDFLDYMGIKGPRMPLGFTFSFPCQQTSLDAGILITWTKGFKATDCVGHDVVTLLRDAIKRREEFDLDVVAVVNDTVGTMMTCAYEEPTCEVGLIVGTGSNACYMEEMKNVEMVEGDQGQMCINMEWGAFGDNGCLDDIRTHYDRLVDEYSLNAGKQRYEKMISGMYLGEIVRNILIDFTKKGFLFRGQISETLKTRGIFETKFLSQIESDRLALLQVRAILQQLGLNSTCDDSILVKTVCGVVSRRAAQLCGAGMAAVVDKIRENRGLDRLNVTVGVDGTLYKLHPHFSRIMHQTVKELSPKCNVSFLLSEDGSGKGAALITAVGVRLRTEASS
smiles,measurement,setting,value
FC(F)(F)c1nnc2ccc(NCc3cccnc3)nn12,IC50,[1],50.4 µM (inactive)
same,IC50,[2],> 67.5 µM (inactive)
CCN(Cc1cccs1)c1ncnc2ccc(-c3ccc4c(c3)OCO4)cc12,AC50,[3],< 0.00195 µM (active)
COc1cc2ccccc2cc1C(=O)OCC(=O)N(CC(C)C)c1c(N)n(Cc2ccccc2)c(=O)[nH]c1=O,AC50,[4],20.8 µM (active)
Cc1ccc(CSc2nnc(NC(=O)c3ccc4ncsc4c3)s2)cc1,IC50,[5],> 80 µM (inactive)
same,IC50,[6],> 80 µM (inactive)
O=C(NCCN1CCC(n2c(=O)[nH]c3ccccc32)CC1)c1cccc(F)n1,IC50,[7],0.19 µM (active)
same,IC50,[8],1.3 µM (active)
CC(C)CC(=O)Nc1ccc(-c2nc3cc(Cl)ccc3o2)cc1,IC50,[9],> 99 µM (inactive)
same,IC50,[10],> 99 µM (inactive)
same,IC50,[11],> 99 µM (inactive)
same,IC50,[12],51.9 µM (active)
Cn1c(SCC(=O)N(Cc2ccccc2)Cc2ccco2)nnc1-c1ccc(F)cc1,IC50,[13],> 99 µM (inactive)
same,IC50,[14],> 99 µM (inactive)
CC1CCCCC1N(C(=O)c1cc(C2CC2)on1)C1CCCCC1 (centres undefined),EC50,[15],> 50 µM (inactive)
same,EC50,[16],> 50 µM (inactive)
Nc1cccc2cccnc12 [8-AMINOQUINOLINE],IC50,[17],> 79 µM (inactive)
same,IC50,[18],> 79 µM (inactive)
same,IC50,[19],> 80 µM (inactive)
